From patent US20250231108A1, “TR[…]” (SUMITOMO CHEMICAL COMPANY, LIMITED, priority 2022, published 2025)

Test system: TA1537
Test: Ames test (Ames MPF microplate format) without metabolic activation, toxicity to tester assessed by transparency index T from plate image
Settings: for transparency index T: TA1537, no metabolic activation, average of three assessment plates, FIG. 14, T smaller than 1 means high transparency (cells dead)
Experimental: A tester (bacterium having amino acid-requiring mutation, for example, Salmonella typhimurium: a TA100 strain, a TA98 strain, a TA1535 strain, or a TA1537 strain, Escherichia coli: a WP2uvrA strain or the like) that is used is inoculated in 60 mL of Nutrient broth medium, and is shaken and cultured at 37° C. for 9 to 10 hours to be proliferated.
The test substance prepared in the step 2A is dissolved or suspended in an adequate medium, and the resultant solution is diluted by using the medium in staged to prepare concentration series of the test substance solution. In a case where the same test substance is assessed with six concentrations different from each other, six test substance solutions having concentrations different from each other are prepared.
The medium used in preparation of the test substance solution, the concentration series of the test substance solution, and the solution of the positive control compound (collectively referred to as “test substance solution or the like”) are put into individual wells of a 24-well plate (a plate having 24 wells) by 10 μL.
0.175 to 0.7 mL of the tester culture solution (typically at a concentration exceeding 1×10^9 cells/mL) and 6.83 to 6.3 mL of a medium (minimal medium in which a carbon source is added and which is deficient in amino acid) are mixed. The resultant mixture is referred to as a preparation bacterial solution under conditions of the absence of metabolic activation. […]
Specifically, first, an angle θ1 between the centroid vector V1 and the first reference vector V2 and an angle θ2 between the centroid vector V1 and the second reference vector V3 are compared. In a case where the angle θ1 is equal to or smaller than the angle θ2, a transparency index T is calculated based on an expression (1). In a case where the angle θ2 is larger than the angle θ1, the transparency index T is calculated based on an expression (2). […]

ClCc1ccc(Cl)cc1 [4-chlorobenzyl chloride]
toxicity to the tester (cells) (TA1537, 1.95-2,000 μg/mL in DMSO, no metabolic activation, conclusion from transparency index T): toxic to the tester | transparency index T (section Se6, test substance 500 μg/mL): reduced | transparency index T (section Se7, test substance 2,000 μg/mL): reduced
